One assay deals with EGFR (Homo sapiens, UniProt P00533). Kind of assay: EGFR kinase inhibition assay. Format: biochemical. As for the experimental part:
(§1) Kinase activity and compound inhibition are investigated using one or more of the three assay formats described below. The ATP concentrations for each assay are selected to be close to the Michaelis-Menten constant (KM) for each individual kinase. Dose-response experiments are performed at 10 different inhibitor concentrations in a 384-well plate format. The data are fitted to four-parameter equation (2) below; where Y is the observed signal, X is the inhibitor concentration, Min is the background signal in the absence of enzyme (0% enzyme activity), Max is the signal in the absence of inhibitor (100% enzyme activity), IC50 is the inhibitor concentration at 50% enzyme inhibition and H represents the empirical Hill's slope to measure the cooperativity. Typically H is close to unity. Y=Min+(Max−Min)/(1+(X/IC50)^H) Equation (2) ^33P Phosphoryl Transfer Assay: […]
(§2) Greiner 384-well white, clear bottom, high binding plates are coated with 2 μg/well of protein or peptide substrate in a 50 μL volume overnight at ambient temperature. The coating buffer typically contains 40 μg/mL substrate, 22.5 mM Na2CO3, 27.5 mM NaHCO3, 150 mM NaCl and 3 mM NaN3. The coating solution is aspirated and the plates are washed once with 50 μL of assay buffer and padded dry. Subsequently compounds and enzymes are mixed with γ^33P-ATP (3.3 μCi/nmol) in a total volume of 20 uL in suitable assay buffers. The mixture is incubated at ambient temperature for 1.5-2.5 hrs and terminated by aspiration using a Molecular Devices EMBLA 96-head plate washer. The plates are subsequently washed 6-12 times with PBST or TBS buffer. Scintillation fluid (50 μl/well) is then added, the plates are sealed and activity assessed by liquid scintillation spectrometry using a Perkin Elmer MicroBeta TriLux.
(§3) In the LCCA assays, kinase activity is measured as the percent ATP consumed following the kinase reaction using luciferase-luciferin-coupled chemiluminescence. Greiner 384-well white, clear bottom, medium-binding plates are used for LCCA. Briefly, the kinase reaction is initiated by mixing compounds, ATP and kinase in a 20 uL volume. The mixture is incubated at ambient temperature for 2-4 hrs. At the end of the kinase reaction, a 20 uL luciferase-luciferin mix is added and the chemiluminescent signal is read using a Wallac Victor^2 reader. The luciferase-luciferin mix consists of 50 mM HEPES, pH 7.8, 8.5 ug/mL oxalic acid (pH 7.8), 5 (or 50) mM DTT, 0.4% Triton X-100, 0.25 mg/mL coenzyme A, 63 uM AMP, 28 ug/mL luciferin and 40,000 units of light/mL luciferase. For the LCCA assays, total ATP consumption has been standardized to 25-45% and the IC50 values correlates well with those determined by radiometric assays.
(§4) AlphaScreen technology is a proximity assay which utilizes the increase in fluorescent signal occurring when donor and acceptor beads are close in proximity. Biotinylated poly(Glu,Tyr) 4:1 is used as the kinase substrate, in conjunction with streptavidin-coated donor beads and anti-phosphortyrosine antibody PY100-coated acceptor beads. Upon phosphorylation, the peptide substrate can bind to both donor and acceptor beads giving rise to an increase in fluorescence. Compounds, ATP, biotinylated poly(Glu, Tyr) and kinases are mixed in a volume of 20 uL for 1 hr at ambient temperature using Greiner 384-well white clear bottom medium binding plates. Following incubation a 10 uL solution containing […] AlphaScreen beads, 75 mM Hepes, pH 7.4, 300 mM NaCl, 120 mM EDTA, 0.3% BSA and 0.03% Tween-20 is added to each well. After 2-16 hr incubation of the beads, plates are read in a Perkin Elmer AlphaQuest reader. The IC50 values correlates well with those of radiometric assays.

The target of a further assay is T1, flt-3 (Homo sapiens, UniProt P36888).
T1 construct: baculovirus expressed human Flt-3 kinase domain R571-S993
T1 sequence (P36888 571-993): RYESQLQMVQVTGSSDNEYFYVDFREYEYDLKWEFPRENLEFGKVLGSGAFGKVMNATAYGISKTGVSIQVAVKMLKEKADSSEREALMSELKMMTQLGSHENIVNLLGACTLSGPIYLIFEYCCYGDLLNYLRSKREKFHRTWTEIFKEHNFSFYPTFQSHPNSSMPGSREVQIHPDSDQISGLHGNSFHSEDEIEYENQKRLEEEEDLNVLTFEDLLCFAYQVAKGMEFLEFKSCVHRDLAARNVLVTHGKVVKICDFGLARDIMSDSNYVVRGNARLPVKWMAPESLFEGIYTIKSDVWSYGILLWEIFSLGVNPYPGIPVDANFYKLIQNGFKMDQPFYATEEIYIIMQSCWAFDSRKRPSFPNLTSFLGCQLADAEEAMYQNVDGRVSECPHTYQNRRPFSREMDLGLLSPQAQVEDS
The experiment in a line: flt-3 Luciferase-Coupled Chemiluminescent Kinase assay (LCCA). Format: biochemical. The method in brief:
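Baculovirus-expressed human Flt-3 kinase domain (R571-S993, 5 nM) was reacted with 5 μM ATP and 3 μM poly-EY in Tris pH 7.5 buffer with MgCl2/MnCl2 for 3 h at ambient temperature. Remaining ATP was read by luciferase-luciferin chemiluminescence, with ATP consumption standardized to 25-45%, for IC50.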

For a further assay, the target named is T2, EphB4 (Homo sapiens, UniProt P54760).
T2 sequence (P54760 16-987): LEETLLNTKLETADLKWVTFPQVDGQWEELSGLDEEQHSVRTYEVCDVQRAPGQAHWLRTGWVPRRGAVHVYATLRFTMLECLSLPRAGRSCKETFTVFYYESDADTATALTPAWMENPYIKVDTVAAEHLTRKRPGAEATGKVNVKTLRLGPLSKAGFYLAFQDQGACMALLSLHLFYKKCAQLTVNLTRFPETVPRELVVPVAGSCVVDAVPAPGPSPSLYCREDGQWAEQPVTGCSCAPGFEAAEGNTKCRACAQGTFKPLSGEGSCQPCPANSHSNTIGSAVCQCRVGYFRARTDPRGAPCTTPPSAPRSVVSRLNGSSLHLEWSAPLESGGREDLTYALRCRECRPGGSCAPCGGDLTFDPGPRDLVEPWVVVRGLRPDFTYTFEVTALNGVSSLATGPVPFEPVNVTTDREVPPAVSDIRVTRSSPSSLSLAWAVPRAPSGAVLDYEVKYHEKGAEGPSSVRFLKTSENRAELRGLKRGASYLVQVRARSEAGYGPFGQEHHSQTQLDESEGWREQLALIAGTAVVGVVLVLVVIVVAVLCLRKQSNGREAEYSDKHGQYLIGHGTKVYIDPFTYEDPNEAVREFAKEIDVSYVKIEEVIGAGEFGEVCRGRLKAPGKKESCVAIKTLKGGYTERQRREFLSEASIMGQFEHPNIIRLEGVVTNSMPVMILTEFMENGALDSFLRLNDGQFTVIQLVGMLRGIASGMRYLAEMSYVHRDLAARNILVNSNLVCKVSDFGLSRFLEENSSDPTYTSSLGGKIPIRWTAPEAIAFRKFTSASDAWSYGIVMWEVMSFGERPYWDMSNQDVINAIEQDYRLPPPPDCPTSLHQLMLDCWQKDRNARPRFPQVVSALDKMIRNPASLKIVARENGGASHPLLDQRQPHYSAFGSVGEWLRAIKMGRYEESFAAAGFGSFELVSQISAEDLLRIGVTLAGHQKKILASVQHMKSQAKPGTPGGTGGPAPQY
Kind of assay: EphB4 kinase inhibition assay. Format: biochemical. As for the experimental part: as §1, §2, §3, §4

A further assay has as its target c-Kit (Homo sapiens, UniProt P10721). The experiment in a line: c-Kit biochemical assay (AlphaScreen). The method in brief:
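Kinase, compound, ATP and biotinylated poly(Glu,Tyr) 4:1 reacted 1 hr at ambient temperature; quenched with EDTA buffer (pH 7.4) containing streptavidin donor and anti-phosphotyrosine PY100 acceptor beads, incubated 16 hr, then AlphaScreen signal read to give IC50.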
A general note: Alpha assays give light when donor and acceptor beads are brought close together.

As usually defined, the IC50 is the point on the concentration scale where inhibition reaches its midpoint. Low values mean higher potency, high ones lower potency.

c-Kit, sequence (P10721 26-976): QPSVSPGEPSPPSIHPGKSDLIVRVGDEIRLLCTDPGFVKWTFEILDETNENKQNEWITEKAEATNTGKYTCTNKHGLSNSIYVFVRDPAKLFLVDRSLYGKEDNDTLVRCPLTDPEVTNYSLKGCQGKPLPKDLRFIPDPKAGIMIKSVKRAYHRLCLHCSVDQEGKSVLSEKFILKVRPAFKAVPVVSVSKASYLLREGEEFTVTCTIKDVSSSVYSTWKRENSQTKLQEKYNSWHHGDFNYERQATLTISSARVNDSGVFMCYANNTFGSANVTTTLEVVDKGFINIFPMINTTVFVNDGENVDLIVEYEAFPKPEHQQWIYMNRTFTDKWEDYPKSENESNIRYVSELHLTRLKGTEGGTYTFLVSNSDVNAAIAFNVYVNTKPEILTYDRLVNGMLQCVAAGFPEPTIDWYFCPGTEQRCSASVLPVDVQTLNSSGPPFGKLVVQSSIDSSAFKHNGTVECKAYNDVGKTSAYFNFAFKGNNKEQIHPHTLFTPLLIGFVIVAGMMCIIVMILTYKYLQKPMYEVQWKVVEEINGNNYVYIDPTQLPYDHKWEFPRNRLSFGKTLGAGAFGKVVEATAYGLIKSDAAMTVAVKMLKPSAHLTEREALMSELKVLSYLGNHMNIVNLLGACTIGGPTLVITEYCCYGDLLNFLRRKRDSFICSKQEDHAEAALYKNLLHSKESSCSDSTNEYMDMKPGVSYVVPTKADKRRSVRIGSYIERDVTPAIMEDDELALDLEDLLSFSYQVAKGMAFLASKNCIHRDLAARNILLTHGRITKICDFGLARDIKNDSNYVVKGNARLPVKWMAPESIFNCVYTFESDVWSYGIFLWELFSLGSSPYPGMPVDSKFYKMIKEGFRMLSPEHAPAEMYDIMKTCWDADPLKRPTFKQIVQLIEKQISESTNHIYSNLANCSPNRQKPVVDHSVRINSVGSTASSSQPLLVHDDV
EGFR, sequence (P00533 25-1210, species assumed): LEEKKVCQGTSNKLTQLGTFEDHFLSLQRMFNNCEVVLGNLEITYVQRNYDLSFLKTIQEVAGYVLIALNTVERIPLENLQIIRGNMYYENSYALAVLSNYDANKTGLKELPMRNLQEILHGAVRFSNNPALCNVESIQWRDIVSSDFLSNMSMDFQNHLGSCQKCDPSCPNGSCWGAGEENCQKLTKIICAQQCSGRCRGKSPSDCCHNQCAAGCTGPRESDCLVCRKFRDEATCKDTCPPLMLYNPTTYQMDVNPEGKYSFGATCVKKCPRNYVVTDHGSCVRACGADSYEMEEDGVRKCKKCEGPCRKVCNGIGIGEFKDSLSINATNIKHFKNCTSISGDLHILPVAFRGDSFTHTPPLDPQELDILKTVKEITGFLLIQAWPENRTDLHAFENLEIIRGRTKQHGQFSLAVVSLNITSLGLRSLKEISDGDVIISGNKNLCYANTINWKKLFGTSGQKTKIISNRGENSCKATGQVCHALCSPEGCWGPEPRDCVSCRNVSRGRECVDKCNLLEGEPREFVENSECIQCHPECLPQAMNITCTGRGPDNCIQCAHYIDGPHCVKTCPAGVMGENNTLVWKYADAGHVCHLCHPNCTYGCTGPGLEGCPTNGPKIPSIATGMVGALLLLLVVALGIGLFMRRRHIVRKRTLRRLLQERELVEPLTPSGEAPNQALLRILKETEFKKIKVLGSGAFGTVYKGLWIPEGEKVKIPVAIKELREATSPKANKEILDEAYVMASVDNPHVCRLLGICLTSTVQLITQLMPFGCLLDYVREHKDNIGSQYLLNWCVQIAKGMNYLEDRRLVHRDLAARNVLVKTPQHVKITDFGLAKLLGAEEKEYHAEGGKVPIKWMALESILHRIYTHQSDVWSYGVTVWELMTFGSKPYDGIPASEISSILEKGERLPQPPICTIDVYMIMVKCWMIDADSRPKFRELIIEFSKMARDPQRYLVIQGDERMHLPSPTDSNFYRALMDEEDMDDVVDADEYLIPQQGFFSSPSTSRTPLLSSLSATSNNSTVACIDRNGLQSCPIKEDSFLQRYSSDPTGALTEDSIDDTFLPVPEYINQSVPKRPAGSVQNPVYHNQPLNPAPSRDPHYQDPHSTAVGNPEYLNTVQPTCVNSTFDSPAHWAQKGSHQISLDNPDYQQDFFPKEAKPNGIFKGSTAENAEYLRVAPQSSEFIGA

As for `COc1cc(NC(=O)Nc2ccc(-c3cc(-c4nc5ccc(N6CCN(C)CC6)cc5[nH]4)n[nH]3)cc2)cc(OC)c1` [Entry 11, N-[3,5-bis(methyloxy)phenyl]-N′-(4-{3-[6-(4-methylpiperazin-1-yl)-1H-benzimidazol-2-yl]-1H-pyrazol-5-yl}phenyl)urea], the IC50 against EGFR was above 5000 nM; against flt-3 it was below 50 nM; at EphB4, above 5000 nM; on c-Kit, below 50 nM.

In the case of `CN1CCN(c2ccc3[nH]c(-c4cc(-c5ccc(NC(=O)Nc6ccc(OC(F)(F)F)cc6)cc5)[nH]n4)nc3c2)CC1` [Entry 12, N-(4-{3-[5-(4-methylpiperazin-1-yl)-1H-benzimidazol-2-yl]-1H-pyrazol-5-yl}phenyl)-N′-{4-[(trifluoromethyl)oxy]phenyl} urea], the IC50 at EGFR was above 5000 nM; against flt-3 it was below 50 nM; against EphB4, above 5000 nM; against c-Kit, below 50 nM.

In the case of `CN1CCN(c2ccc3[nH]c(-c4cc(-c5ccc(NC(=O)Nc6ccc(Cl)c(C(F)(F)F)c6)cc5)[nH]n4)nc3c2)CC1` [Entry 14, N-[4-chloro-3-(trifluoromethyl)phenyl]-N′-(4-{3-[5-(4-methylpiperazin-1-yl)-1H-benzimidazol-2-yl]-1H-pyrazol-5-yl}phenyl)urea], the IC50 is above 5000 nM against EGFR, below 50 nM against flt-3, above 5000 nM on EphB4 and below 50 nM at c-Kit.

On to `CN1CCN(c2ccc3[nH]c(-c4cc(-c5ccc(NC(=O)Nc6cccc(C(F)(F)F)c6)cc5)[nH]n4)nc3c2)CC1` [Entry 15, N-(4-{3-[5-(4-methylpiperazin-1-yl)-1H-benzimidazol-2-yl]-1H-pyrazol-5-yl}phenyl)-N′-[3-(trifluoromethyl)phenyl]urea], for which the IC50 on EGFR was above 5000 nM; on flt-3, below 50 nM; on EphB4 it was 500 to 5000 nM; against c-Kit, below 50 nM.

For the compound `CN1CCN(c2ccc(-c3cc(-c4ccc(NC(=O)Nc5ccc(Cl)c(C(F)(F)F)c5)cc4)[nH]n3)cc2)CC1` [Entry 16, N-[4-chloro-3-(trifluoromethyl)phenyl]-N′-(4-{3-[4-(4-methylpiperazin-1-yl)phenyl]-1H-pyrazol-5-yl}phenyl)urea], the IC50 was above 5000 nM on EGFR, below 50 nM on flt-3, above 5000 nM at EphB4 and below 50 nM against c-Kit.

With `CN1CCN(c2ccc3[nH]c(-c4cc(-c5ccc(NC(=O)Nc6ccc(Cl)cc6)cc5)[nH]n4)nc3c2)CC1` [Entry 18, N-(4-chlorophenyl)-N′-(4-{3-[5-(4-methylpiperazin-1-yl)-1H-benzimidazol-2-yl]-1H-pyrazol-5-yl}phenyl)urea], the half-inhibitory concentration (IC50) on EGFR was above 5000 nM; against flt-3 it was below 50 nM; at EphB4, above 5000 nM; at c-Kit, below 50 nM.

For the compound `CN1CCN(c2ccc3[nH]c(-c4cc(-c5ccc(NC(=O)Nc6cc(F)cc(F)c6)cc5)[nH]n4)nc3c2)CC1` [Entry 19, N-(3,5-difluorophenyl)-N′-(4-{3-[5-(4-methylpiperazin-1-yl)-1H-benzimidazol-2-yl]-1H-pyrazol-5-yl}phenyl)urea], the IC50 on EGFR was above 5000 nM; at flt-3, below 50 nM; on EphB4, above 5000 nM; at c-Kit it was below 50 nM.

In the case of `COc1cccc(NC(=O)Nc2ccc(-c3cc(-c4nc5cc(N6CCN(C)CC6)ccc5[nH]4)n[nH]3)cc2)c1` [Entry 20, N-[3-(methyloxy)phenyl]-N′-(4-{3-[5-(4-methylpiperazin-1-yl)-1H-benzimidazol-2-yl]-1H-pyrazol-5-yl}phenyl)urea], the IC50 against EGFR is above 5000 nM; against flt-3 it was below 50 nM; against EphB4, above 5000 nM; at c-Kit it was below 50 nM.

Take `CCN1CCN(c2ccc(-c3cc(-c4ccc(NC(=O)Nc5ccc(Cl)c(C(F)(F)F)c5)cc4)[nH]n3)cc2)CC1` [Entry 21, N-[4-chloro-3-(trifluoromethyl)phenyl]-N′-(4-{3-[4-(4-ethylpiperazin-1-yl)phenyl]-1H-pyrazol-5-yl}phenyl)urea]: the IC50 on EGFR was above 5000 nM; at flt-3 it was below 50 nM; against EphB4, above 5000 nM; against c-Kit it was below 50 nM.

For the compound `CN1CCN(c2ccc3[nH]c(-c4cc(-c5ccc(NC(=O)Nc6cccc(F)c6)cc5)[nH]n4)nc3c2)CC1` [Entry 22, N-(3-fluorophenyl)-N′-(4-{3-[5-(4-methylpiperazin-1-yl)-1H-benzimidazol-2-yl]-1H-pyrazol-5-yl}phenyl)urea], the IC50 at EGFR is above 5000 nM; against flt-3, below 50 nM; against EphB4, above 5000 nM; against c-Kit it was below 50 nM.

For the compound `CN1CCN(c2ccc3[nH]c(-c4cc(-c5ccc(NC(=O)Nc6ccc(F)cc6)cc5)[nH]n4)nc3c2)CC1` [Entry 23, N-(4-fluorophenyl)-N′-(4-{3-[5-(4-methylpiperazin-1-yl)-1H-benzimidazol-2-yl]-1H-pyrazol-5-yl}phenyl)urea], the IC50 against EGFR is above 5000 nM; on flt-3, below 50 nM; against EphB4, above 5000 nM; at c-Kit it was below 50 nM.
